This is an account of results in article PMC11131023, “Oral delivery of nanomedicine for genetic kidney disease” (PNAS Nexus, 2024).

For one data set, the system named is AMPK. The experiment in a line: Intestine-kidney in vitro Transwell model, phospho-AMPK ELISA. Conditions: mpkCCDc14 cells below Caco-2 cells on Transwell, after 12 hours, N ≥ 3. It counts as cell-based, mouse. As for the experimental part: To collect cysts grown in Matrigel, cysts were kept on ice for 1 h to liquidize the Matrigel and centrifuged at 400×g for 5 min to collect the cyst in the pellet. All standards and samples were measured on a Varioskan LUX microplate reader at a wavelength of 450 nm. The phospho-AMPK to total AMPK ratio was normalized to the PBS group and presented in percentage.
Background: An ELISA detects its analyte on a solid surface through an enzyme-linked reagent.

Data set [1] in a line: Kidney health in ADPKD mice (i-Stat Chem-8+ blood analysis). The class given is in vivo, mouse. As for the experimental part:
On the day of harvest, 90 µL of blood taken from the submandibular vein was analyzed using Chem-8+ cartridges for the i-Stat Handheld Blood Analyzer (Abbott, Chicago, IL, USA). Kidney health markers including measurements of plasma sodium (Na), potassium (K), chloride (Cl), ionized calcium (iCa), total carbon dioxide (tCO2), glucose (Glu), BUN/urea, creatinine (Crea), hematocrit (Hct), and hemoglobin (Hb) were evaluated.

Another data set concerns Caco-2 cells. Nature of the data set: TER measurement of Caco-2 monolayers after CP treatment. It counts as cell-based, human. Conditions: Caco-2 monolayer, up to 3 days after administration. As for the experimental part:
In addition to protection against an acidic environment mimicking the stomach, chitosan has been reported to open tight junctions within the intestinal epithelium and increase bioavailability in vivo ([51]). […] TER was measured three days before treatment and again after administration of nanoparticles or free drug for up to 3 days.
TER measurements were performed using an EVOM2 Epithelial Voltohmmeter (World Precision Instruments, USA).

The nature of data set [2]: Biodistribution after oral gavage (ex vivo organ Cy7 fluorescence). The conditions noted are these: 200 μL of 500 µM Cy7-labeled, 24 h, ex vivo imaging, N = 4. As for the experimental part:
All animal procedures followed NIH guidelines for the care and use of laboratory animals and were approved by the University of Southern California's Institutional Animal Care and Use Committee. […] Mice were euthanized 24 h postinjection and organs (e.g. brain, heart, lungs, liver, kidneys, spleen, intestines, and bladder) were excised, imaged ex vivo on an AMI HTX in vivo imaging system, and the fluorescence signal was quantified via Aura software (Spectral Instruments Imaging, Tucson, AZ, USA, n ≥ 4). The mean radiance (photons/s/cm^2/sr) for each organ was quantified as a region of interest, and % of total organ fluorescence was obtained by dividing the fluorescence level of each organ by the sum of all the organ regions. Background was subtracted from the PBS-treated group.

For data set [3] the following is noted: cited from earlier work. An excerpt:
The primary obstacle in the current management of kidney disease lies in the inadequate drug concentration within the kidney. This limitation is particularly evident in the case of ADPKD, where the only FDA-approved treatment, tolvaptan, achieves ∼5.7% accumulation in the kidney after oral administration ([62]). Similarly, in our study, ∼4.5% of free metformin accumulated in the kidney. Given the pronounced deficiency in kidney bioavailability observed with free drugs, our innovative oral kidney-targeting nanoformulation emerges as a promising solution to the current clinical challenges by pro ...

On the set-up of data set [4]: method as in PMID 24211079. Conditions: cited from earlier work.
[5] abbreviates: oral every 3 days P30-P120, day of harvest.

A value given as a limit tells only on which side of the number the result lay.

In the case of `CN(C)C(=N)N=C(N)N` [free metformin, metformin], the “phosphorylated AMPK to total AMPK” value in the data set on AMPK amounted to 1.3 ± 0.4. Besides, the Na in data set [1] (oral every 3 days P30-P120, blood from submandibular vein, day of harvest) is given as 144.6 ± 1.6 mmol/L. In data set [1] (setting [5]), the BUN/Urea was determined as 22.8 ± 7.8 md/dL, the Cl stood at 113.0 ± 3.2 mmol/L, the Crea is given as <0.2 md/dL and the Glu is 220 ± 24.4 mg/dL. Moreover, in data set [1] (setting [5]), the Hb is 12.8 ± 0.9 g/dL, the Hct is recorded as 37.4 ± 3.0 PCV, the K was found to be 5.9 ± 1.4 mmol/L and the iCa came to 1.1 ± 0.2 mmol/L. Moreover, in data set [1] (setting [5]), the tCO2 was determined as 23.1 ± 0.8 mmol/L. Also, the “change in TER” value with Caco-2 cells is recorded as “no changes in TER”. The “kidney accumulation (% of total organ fluorescence)” value in data set [2] is ~4.5%.
In the case of `Cc1ccccc1C(=O)Nc1ccc(C(=O)N2CCCC(O)c3cc(Cl)ccc32)c(C)c1` (stereo not drawn) [tolvaptan], the “accumulation in the kidney after oral administration” value in data set [3] is reported as ~5.7%.
As for “Cy7-DSPE-PEG2000-(KKEEE)3K [free amphiphilic monomers, unassembled kidney-targeting amphiphiles]”, the critical micelle concentration in data set [4] is given as ~1 µM.
